Source: PMC9823735, “Inhibition of Leishmania infantum Trypanothione Reductase by New Aminopropanone Derivatives Interacting with the NADPH Binding Site” (Molecules, 2023)

Tests used:
LiTR [1] = molecular target: T1, LiTR (Leishmania infantum, UniProt A4HSF7); design: method as in PMID 30475811; conditions: residual LiTR activity with 100 μM inhibitor; reference compound; cited from earlier work
T1 construct: LiTR has been expressed and purified as reported previously; made in house

hGR = system: hGR; design: method as in PMID 30475811; conditions: cited from earlier work
[2] = system: L. infantum promastigotes; design: method as in PMID 30475811; conditions: read-out: IC50 anti-proliferative effect; cited from earlier work
LiTR [3] = molecular target: T1, LiTR; experiment: LiTR enzymatic inhibition assay (NADPH oxidation, absorbance at 340 nm); type: biochemical; conditions: for activity at 100 µM: read-out: LiTR Activity (% at 100 µM)
Experimental: (§1) Furthermore, the best acting compound, namely 2b, reduced the activity of the enzyme by 47%.
Enzymatic inhibition assays were performed at 25 °C using a JASCO V650 spectrophotometer equipped with a JASCO EHC-716 Peltier unit. LiTR (50 nM) was mixed with 100 μM of the compounds and 150 μM trypanothione in 50 mM HEPES pH 7.4, 40 mM NaCl, and incubated at 25 °C for 3 min. The reaction was started upon addition of 100 μM NADPH. Oxidation of the NADPH was followed as a decrease in absorbance at 340 nm. The best inhibitor candidate (2b) was then tested under the same conditions at concentrations ranging from 0.1 to 200 μM to determine the IC50. LiTR activity was determined as V0(compound)/V0(control)*100, where V0 is the initial velocity. The IC50 was determined using a dose response logistic equation defined by the Kaleidagraph software as ymin + (ymax-ymin)/(1 + (x/IC50)^slope).

[4] = molecular target: T2, human homolog glutathione reductase (Homo sapiens, UniProt P00390); experiment: Glutathione reductase inhibition assay (NADPH oxidation, absorbance at 340 nm); type: biochemical
T2 construct: purchased Sigma Aldrich
T2 sequence (P00390 44-522): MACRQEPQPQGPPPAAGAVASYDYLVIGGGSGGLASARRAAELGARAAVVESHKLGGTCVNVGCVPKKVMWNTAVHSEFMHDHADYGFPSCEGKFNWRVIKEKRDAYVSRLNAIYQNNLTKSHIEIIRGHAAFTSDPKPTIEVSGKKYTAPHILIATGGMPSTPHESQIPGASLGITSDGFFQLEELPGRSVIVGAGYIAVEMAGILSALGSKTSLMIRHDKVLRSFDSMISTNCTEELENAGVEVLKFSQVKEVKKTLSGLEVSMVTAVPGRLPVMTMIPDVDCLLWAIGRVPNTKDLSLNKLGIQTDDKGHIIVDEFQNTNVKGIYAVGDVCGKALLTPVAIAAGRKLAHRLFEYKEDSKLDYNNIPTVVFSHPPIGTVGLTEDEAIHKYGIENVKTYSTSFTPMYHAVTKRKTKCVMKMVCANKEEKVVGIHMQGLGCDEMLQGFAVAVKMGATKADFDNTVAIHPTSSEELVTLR
Experimental: as §1
Figure S9: Conformation of compound 3c with the lowest energy in the most populated cluster.
Figure S10. Inhibition kinetics of the glutathione reductase in the presence of compound 2b. Inhibition assays were performed at 25 °C using a JASCO V650 spectrophotometer equipped with a JASCO EHC-716 Peltier unit. Glutathione Reductase (GR) 50 nM, (purchased from Sigma Aldrich) was mixed with varying concentrations of compound 2b (0.1 to 200 μM) and 150 μM oxidized glutathione in 50 mM HEPES pH 7.4, 40 mM NaCl; and incubated at 25°C for 3 minutes. The reaction was started upon addition of 100 μM NADPH. Oxidation of NADPH was followed as a decrease in absorbance at 340 nm. GR activity was determined as V0(compound)/V0(control)*100 where V0 is the initial velocity. The IC50 was determined using a dose response logistic equation defined by the Kaleidagraph software as ymin+(ymax-ymin)/(1+(x/IC50)^slope). […]

T1 sequence (A4HSF7 1-491): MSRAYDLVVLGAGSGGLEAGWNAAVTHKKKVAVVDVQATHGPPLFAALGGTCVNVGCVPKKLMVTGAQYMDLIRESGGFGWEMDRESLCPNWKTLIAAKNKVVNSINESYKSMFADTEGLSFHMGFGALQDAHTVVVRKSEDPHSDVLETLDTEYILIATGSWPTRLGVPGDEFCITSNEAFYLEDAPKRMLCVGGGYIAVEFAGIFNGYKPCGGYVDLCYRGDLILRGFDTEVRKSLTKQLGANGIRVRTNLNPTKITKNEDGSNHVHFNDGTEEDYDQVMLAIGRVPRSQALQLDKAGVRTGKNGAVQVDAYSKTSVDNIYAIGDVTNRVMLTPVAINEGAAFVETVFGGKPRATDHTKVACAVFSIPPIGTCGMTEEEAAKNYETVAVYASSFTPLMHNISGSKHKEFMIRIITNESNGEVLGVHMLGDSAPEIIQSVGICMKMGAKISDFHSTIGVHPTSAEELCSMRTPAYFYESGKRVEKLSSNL

| Compound | activity at 100 µM (LiTR [3]) | other results |
| --- | --- | --- |
| CCN(CC)CCOC(=O)c1ccc(NCCC(=O)c2ccc([N+](=O)[O-])cc2)cc1 [Compound 1, 2-(diethylamino)ethyl 4-((3-(4-nitrophenyl)-3-oxopropyl)amino)benzoate] |  | LiTR Activity (% at 100 µM) (LiTR [1]): <10.0 [10] %; IC50 (hGR): > 85 µM; IC50 [2]: 12.4 µM |
| CCN(CC)CCOC(=O)c1ccc(NCCC(=O)c2ccc(-c3ccccc3)cc2)cc1 [Compound 2a, 2-(Diethylamino)ethyl 4-((3-([1,1’-biphenyl]-4-yl)-3-oxopropyl)amino)benzoate] | 55.4 ± 13.3% |  |
| CCN(CC)CCOC(=O)c1ccc(NCCC(=O)c2ccc(-c3ccc(Cl)cc3)cc2)cc1 [Compound 2b, 2-(Diethylamino)ethyl 4-((3-(4’-chloro-[1,1’-biphenyl]-4-yl)-3-oxopropyl)amino)benzoate] | 47 ± 9.7% | residual LiTR activity (LiTR [3]; 100 μM compound): 47%; IC50 (LiTR [3]; 25 °C, 150 μM trypanothione, 100 μM NADPH, average of three experiments): 65 µM; IC50 ([4]; 25 °C, 50 nM GR, 150 μM oxidized glutathione, 100 μM NADPH): > 150 µM; IC50 on glutathione reductase relative to IC50 on TR (selectivity) ([4]; GR versus LiTR): more than two-fold higher |
| CCN(CC)CCOC(=O)c1ccc(NCCC(=O)c2ccc(Br)cc2)cc1 [Compound 2c, 2-(Diethylamino)ethyl 4-((3-(4-bromophenyl)-3-oxopropyl)amino)benzoate] | 73.8 ± 4.6% |  |
| CCN(CC)CCOC(=O)c1ccc(NCCC(=O)c2ccccc2)cc1 [Compound 2d, 2-(Diethylamino)ethyl 4-((3-oxo-3-phenylpropyl)amino)benzoate] | 73.8 ± 4.4% |  |
| CCN(CC)CCOC(=O)c1ccc(NCCC(=O)c2ccc(F)cc2)cc1 [Compound 2e, 2-(Diethylamino)ethyl 4-((3-(4-fluorophenyl)-3-oxopropyl)amino)benzoate] | 60.5 ± 4.1% |  |
| CCN(CC)CCOC(=O)c1ccc(N(CCC(=O)c2ccc(F)cc2)CCC(=O)c2ccc(F)cc2)cc1 [Compound 2f, 2-(Diethylamino)ethyl 4-(bis(3-(4-fluorophenyl)-3-oxopropyl)amino)benzoate] | 75 ± 2.4% |  |
| CCN(CC)CCNC(=O)c1ccc(NCCC(=O)c2ccc(-c3ccccc3)cc2)cc1 [Compound 3a, 4-((3-([1,1’-Biphenyl]-4-yl)-3-oxopropyl)amino)-N-(2-(diethylamino)ethyl)benzamide] | 68.4 ± 6.7% |  |
| CCN(CC)CCNC(=O)c1ccc(NCCC(=O)c2ccc(-c3ccc(Cl)cc3)cc2)cc1 [Compound 3b, 4-((3-(4’-Chloro-[1,1’-biphenyl]-4-yl)-3-oxopropyl)amino)-N-(2-(diethylamino)ethyl)benzamide] | 59.4 ± 2.4% |  |
| CCN(CC)CCNC(=O)c1ccc(NCCC(=O)c2ccc(Br)cc2)cc1 [Compound 3c, 4-((3-(4-Bromophenyl)-3-oxopropyl)amino)-N-(2-(diethylamino)ethyl)benzamide] | 87.3 ± 1.9% |  |
